Data: US11591328B2 (XIAMEN BIOTIME BIOTECHNOLOGY CO., LTD., priority 2018, dated 2023)

Key:
c-Kit = c-Kit (Homo sapiens (Human), UniProt P10721); assay: c-Kit kinase activity test (Caliper mobility shift assay); type: biochemical
Experimental: (§1) Caliper mobility shift assay was used to determine the kinase activities of c-Kit, PDGFRα, PDGFRβ, and FLT-3.
(§2) The final concentration of the kinase and its corresponding substrate (ATP and peptide substrate P2 or P22) during the experiment is as follows:
(§3) Add 5 μL of compound (10% DMSO) at 5 times the final concentration of the reaction to a 384-well plate. Add 10 μL of 2.5×enzyme solution and incubate for 10 minutes at room temperature, then add 10 μL of 2.5×substrate (ATP and peptide substrate, P2 or P22). After incubating at 28° C. for 60 minutes, add 25 μL stop solution to stop the reaction. Read conversion rate data on Caliper EZ Reader II (Caliper Life Sciences). Convert the conversion rate into inhibition rate data (% inhibition rate=(max−sample conversion rate)/(max−min)×100). Where max refers to the conversion rate of the DMSO control, and min refers to the conversion rate of the control without enzyme activity. Draw a curve with compound concentration and inhibition rate on the abscissa and ordinate, use XLFit excel add-in version 4.3.1 software to fit the curve and calculate IC50.

PDGFRβ = PDGFRβ (Homo sapiens (Human), UniProt P09619); assay: PDGFRβ kinase activity test (Caliper mobility shift assay); type: biochemical
Experimental: as §1, §2, §3

FLT-3 = FLT-3 (Homo sapiens (Human), UniProt P36888); assay: FLT-3 kinase activity test (Caliper mobility shift assay); type: biochemical
Experimental: as §1, §2, §3

CSF1R = CSF1R (Homo sapiens (Human), UniProt P07333); assay: CSF1R kinase activity test (HTRF); type: biochemical; conditions: ATP 8 μM
Experimental: In a 384-well plate, add 10 nL of the test compound to each well with the Echo 550 sample loading device. […] Use this buffer to adjust the concentration of CSF1R to 0.02 ng/ul. Add 5 μL of buffer containing CSF1R to the 384-well plate after centrifugation at 1000 g for 30 seconds and incubate at room temperature for 10 minutes. […] The inhibition rate of each point is obtained by the following formula: […]
Wherein, Ratiopositive: the experimental positive control None; Ratiovehicle: is the test value of 0.1% DMSO. With the compound concentration and inhibition rate on the abscissa and ordinate, the curve was drawn, and the curve was fitted with Graphpad 5.0 software and the IC50 was calculated.

[1] = Pharmacokinetic evaluation in CD-1 mice, gavage; type: in vivo; conditions: 10 mg/kg, plasma; for bioavailability / Cmax / half-life: mouse, po; for half-life: read-out: T½ (converted)
Text: Using mice as the test animals, the LC/MS/MS method was used to determine that the mice were intragastrically administered the compound of Example 1, the compound of Example 2, the compound of Example 3, the compound of Example 4, the compound of Example 10, and the compound of Example 14. Compound, the concentration of the drug in the plasma at different times after the compound of Example 26. Study the pharmacokinetic behavior of the compound of the present invention in mice and evaluate its pharmacokinetic characteristics.
The test animals were CD-1 mice, purchased from Shanghai Slack Laboratory Animal Co., Ltd.
Weigh a certain amount of drug, add 5% volume of DMSO or DMAc, 5% volume of PEG400 and 90% volume of normal saline to prepare 1.0 mg/mL colorless, clear and transparent liquid or uniformly dispersed suspension.
CD-1 mice were fasted overnight and then administered by gavage. The dosage was 10 mg/kg and the dosage was 10 mL/kg.
Gavage the mice before and after administration at 0.25, 0.5, 1.0, 2.0, 4.0, 6.0, 8.0, 24.0 hours to collect 0.1 mL of blood, place it in a K2-EDTA anticoagulation tube, and centrifuge at 3500 rpm for 10 minutes. Plasma, stored at −20° C.
To determine the content of the test compound in mouse plasma after gavage of different concentrations of drugs: take 20 uL of mouse plasma at each moment after administration, add propranolol and tolbutamide (each 100 ng/mL) 200 uL of acetonitrile solution, vortex for 5 minutes, centrifuge for 12 minutes (4000 rpm), and take 5 uL of the supernatant from the plasma sample for LC/MS/MS analysis.

FMS = FMS (Homo sapiens (Human), UniProt P07333)
FMS, sequence (P07333 20-972): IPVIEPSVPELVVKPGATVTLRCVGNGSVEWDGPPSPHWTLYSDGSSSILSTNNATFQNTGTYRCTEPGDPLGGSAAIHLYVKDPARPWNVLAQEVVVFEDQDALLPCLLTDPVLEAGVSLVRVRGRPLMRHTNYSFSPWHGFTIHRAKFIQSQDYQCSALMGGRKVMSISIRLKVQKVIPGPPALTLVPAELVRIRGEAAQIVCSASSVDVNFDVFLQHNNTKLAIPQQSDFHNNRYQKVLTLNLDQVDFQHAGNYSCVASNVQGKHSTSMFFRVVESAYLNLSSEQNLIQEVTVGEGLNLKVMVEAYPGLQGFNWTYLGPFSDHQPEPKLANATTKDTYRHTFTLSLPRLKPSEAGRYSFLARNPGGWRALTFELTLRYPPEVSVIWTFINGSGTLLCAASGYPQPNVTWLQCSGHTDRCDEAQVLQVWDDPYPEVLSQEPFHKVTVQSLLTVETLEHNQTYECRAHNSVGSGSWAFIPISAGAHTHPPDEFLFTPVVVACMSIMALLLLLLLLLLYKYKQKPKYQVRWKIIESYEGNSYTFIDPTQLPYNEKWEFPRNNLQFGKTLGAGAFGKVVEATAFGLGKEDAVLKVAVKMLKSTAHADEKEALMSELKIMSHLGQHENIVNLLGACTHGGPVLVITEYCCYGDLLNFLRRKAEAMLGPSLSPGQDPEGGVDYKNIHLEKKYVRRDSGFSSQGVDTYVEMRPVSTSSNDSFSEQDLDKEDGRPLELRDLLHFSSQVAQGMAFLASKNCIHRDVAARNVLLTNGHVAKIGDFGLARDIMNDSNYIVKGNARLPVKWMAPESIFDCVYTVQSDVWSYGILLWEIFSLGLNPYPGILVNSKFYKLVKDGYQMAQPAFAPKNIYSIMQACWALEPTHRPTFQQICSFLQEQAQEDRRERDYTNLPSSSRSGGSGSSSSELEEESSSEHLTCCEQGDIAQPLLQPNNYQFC
Experimental: Place the culture plate in a cell incubator and incubate for 4 hours. […] Add the diluted recombinant human MCSF to a 24-well plate at 100 μL per well, mix quickly and incubate in an incubator for 4 minutes.

CSF1R, sequence (P07333 20-972, species assumed): as the sequence (P07333 20-972) above
FLT-3, sequence (P36888 27-993): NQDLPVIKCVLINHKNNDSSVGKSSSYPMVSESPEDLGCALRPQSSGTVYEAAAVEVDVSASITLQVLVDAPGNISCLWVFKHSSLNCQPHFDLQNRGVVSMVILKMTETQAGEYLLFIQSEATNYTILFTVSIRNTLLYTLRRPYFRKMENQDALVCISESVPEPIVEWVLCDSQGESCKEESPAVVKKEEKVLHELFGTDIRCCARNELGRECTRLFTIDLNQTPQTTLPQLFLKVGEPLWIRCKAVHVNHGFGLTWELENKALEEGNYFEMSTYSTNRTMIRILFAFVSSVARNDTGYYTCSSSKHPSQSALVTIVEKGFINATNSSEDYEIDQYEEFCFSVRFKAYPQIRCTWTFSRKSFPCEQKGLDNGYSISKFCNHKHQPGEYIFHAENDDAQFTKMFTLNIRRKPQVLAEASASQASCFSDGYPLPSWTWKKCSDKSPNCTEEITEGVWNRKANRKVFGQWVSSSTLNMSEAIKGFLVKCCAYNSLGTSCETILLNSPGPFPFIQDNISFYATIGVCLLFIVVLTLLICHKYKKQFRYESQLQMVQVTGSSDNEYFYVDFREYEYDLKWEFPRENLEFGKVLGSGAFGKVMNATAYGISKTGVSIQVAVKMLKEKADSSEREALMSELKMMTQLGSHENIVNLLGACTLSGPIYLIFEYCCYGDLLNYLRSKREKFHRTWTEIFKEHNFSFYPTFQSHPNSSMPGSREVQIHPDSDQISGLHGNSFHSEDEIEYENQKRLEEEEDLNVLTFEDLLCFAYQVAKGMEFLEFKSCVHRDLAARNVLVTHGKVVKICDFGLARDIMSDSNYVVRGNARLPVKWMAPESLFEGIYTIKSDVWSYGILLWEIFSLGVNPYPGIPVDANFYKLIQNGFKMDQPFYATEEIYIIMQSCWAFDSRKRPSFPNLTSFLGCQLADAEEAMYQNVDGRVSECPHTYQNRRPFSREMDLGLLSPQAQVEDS
PDGFRβ, sequence (P09619 33-1106): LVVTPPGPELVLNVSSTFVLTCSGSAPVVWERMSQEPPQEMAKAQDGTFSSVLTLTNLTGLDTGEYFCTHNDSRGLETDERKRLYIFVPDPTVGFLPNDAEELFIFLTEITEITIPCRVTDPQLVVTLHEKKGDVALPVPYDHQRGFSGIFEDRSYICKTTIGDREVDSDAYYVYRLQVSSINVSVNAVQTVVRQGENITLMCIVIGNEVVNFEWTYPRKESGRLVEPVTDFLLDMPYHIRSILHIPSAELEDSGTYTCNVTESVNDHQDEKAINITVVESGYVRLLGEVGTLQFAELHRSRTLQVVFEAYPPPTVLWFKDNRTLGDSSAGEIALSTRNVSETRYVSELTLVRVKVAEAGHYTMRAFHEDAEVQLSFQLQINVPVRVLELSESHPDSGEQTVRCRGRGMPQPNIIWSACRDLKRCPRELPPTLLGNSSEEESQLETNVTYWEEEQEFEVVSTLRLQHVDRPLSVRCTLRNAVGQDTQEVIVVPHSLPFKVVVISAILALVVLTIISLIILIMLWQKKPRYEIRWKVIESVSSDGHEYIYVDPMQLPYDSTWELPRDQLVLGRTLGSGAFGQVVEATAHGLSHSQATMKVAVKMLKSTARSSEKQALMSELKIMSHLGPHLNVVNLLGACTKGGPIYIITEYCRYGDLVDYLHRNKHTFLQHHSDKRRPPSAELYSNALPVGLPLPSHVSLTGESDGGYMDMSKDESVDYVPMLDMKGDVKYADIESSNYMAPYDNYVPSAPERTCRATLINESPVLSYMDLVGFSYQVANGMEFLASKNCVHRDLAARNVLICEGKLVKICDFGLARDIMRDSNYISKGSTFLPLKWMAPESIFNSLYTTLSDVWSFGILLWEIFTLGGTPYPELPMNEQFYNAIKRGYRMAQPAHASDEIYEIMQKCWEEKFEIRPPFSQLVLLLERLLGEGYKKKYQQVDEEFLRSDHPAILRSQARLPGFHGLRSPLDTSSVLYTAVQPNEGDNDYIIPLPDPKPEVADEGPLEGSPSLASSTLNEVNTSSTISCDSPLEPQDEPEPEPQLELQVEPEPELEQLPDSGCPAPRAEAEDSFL
c-Kit, sequence (P10721 26-976): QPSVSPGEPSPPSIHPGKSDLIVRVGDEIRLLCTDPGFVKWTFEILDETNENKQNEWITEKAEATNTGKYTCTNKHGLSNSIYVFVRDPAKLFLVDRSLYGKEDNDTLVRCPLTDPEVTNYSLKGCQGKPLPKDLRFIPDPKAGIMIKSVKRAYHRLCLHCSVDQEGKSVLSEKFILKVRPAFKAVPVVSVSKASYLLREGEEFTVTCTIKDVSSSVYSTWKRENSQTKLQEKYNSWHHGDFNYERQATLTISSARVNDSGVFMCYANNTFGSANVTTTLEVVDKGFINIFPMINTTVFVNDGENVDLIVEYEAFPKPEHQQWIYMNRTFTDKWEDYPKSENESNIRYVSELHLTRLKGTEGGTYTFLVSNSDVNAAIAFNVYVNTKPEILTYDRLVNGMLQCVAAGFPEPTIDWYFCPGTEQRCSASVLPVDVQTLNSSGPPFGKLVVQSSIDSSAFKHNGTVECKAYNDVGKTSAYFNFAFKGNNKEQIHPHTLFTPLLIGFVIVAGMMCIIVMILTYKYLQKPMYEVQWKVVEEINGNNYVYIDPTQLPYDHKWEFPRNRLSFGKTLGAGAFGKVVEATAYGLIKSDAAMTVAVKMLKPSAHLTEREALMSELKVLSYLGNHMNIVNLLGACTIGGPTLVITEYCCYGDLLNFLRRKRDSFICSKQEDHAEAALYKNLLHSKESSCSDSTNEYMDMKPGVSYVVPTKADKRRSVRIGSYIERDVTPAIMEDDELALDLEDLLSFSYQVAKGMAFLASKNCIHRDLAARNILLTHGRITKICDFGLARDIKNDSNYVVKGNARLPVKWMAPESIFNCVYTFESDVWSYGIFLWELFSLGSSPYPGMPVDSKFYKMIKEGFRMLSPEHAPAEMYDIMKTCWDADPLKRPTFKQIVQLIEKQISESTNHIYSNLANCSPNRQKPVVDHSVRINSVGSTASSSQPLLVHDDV

Structure (SMILES)	IC50 (c-Kit) [nM]	IC50 (PDGFRβ) [nM]	IC50 (CSF1R) [nM]	further results
Cn1cc(-c2cc(Oc3ccc(NC(=O)N4CCC5(CCCC(F)(F)C5)C4=O)nc3)ccn2)cn1 (stereo not shown) [Compound 18]	8.4	343		IC50 (FLT-3): 8.63 µM
Cn1cc(-c2cc(Oc3ccc(NC(=O)N4CCC5(CCCO5)C4=O)nc3)ccn2)cn1 (stereo not shown) [Compound 7]			2.7	
Cn1cc(-c2cc(Oc3ccc(NC(=O)N4CCC5(CCCCC5)C4=O)nc3)ccn2)cn1 [Compound 2]	5.4	1580	6.2	AUC [1]: 6.1 µg·h/mL; bioavailability [1]: 71.5%; Cmax [1]: 860 ng/mL; half-life [1]: 188 min
CCc1nc(NC(=O)N2CCC3(CCC(F)(F)CC3)C2=O)ccc1Oc1ccnc(-c2cnn(C)c2)c1 [Compound 16]			6.4	
O=C(Nc1ccc(Oc2ccnc(-c3cn[nH]c3)c2)cn1)N1CCC2(CCC(F)(F)CC2)C1=O [Compound 21]	10.1	7450		
CN1CCC(c2ccc(-c3cc(Oc4ccc(NC(=O)N5CCC6(CCC(F)(F)CC6)C5=O)nc4)ccn3)cc2)CC1 [Compound 22]			6.7	
Cn1cc(-c2cc(Oc3ccc(NC(=O)N4CCC5(CCNCC5)C4=O)nc3)ccn2)cn1 [Compound 11]			300	
Cn1cc(-c2cc(Oc3ccc(NC(=O)N4CCC5(CCN(S(C)(=O)=O)CC5)C4=O)nc3)ccn2)cn1 [Compound 13]			25	
Cn1cc(-c2cc(Oc3ccc(NC(=O)N4CCC5(CCCCC5(F)F)C4=O)nc3)ccn2)cn1 (stereo not shown) [Compound 6]			5.4	
Cn1cc(-c2cc(Oc3ccc(NC(=O)N4CCC5(CCCC5(F)F)C4=O)nc3)ccn2)cn1 (stereo not shown) [Compound 8]			2.3	
Cn1cc(-c2cc(Oc3ccc(NC(=O)N4CCC5(CCC(F)(F)CC5)C4=O)nc3)ccn2)cn1 [Compound 4]	16	783		IC50 (FLT-3): > 10 µM; AUC [1]: 38.8 µg·h/mL; bioavailability [1]: 100%; Cmax [1]: 5270 ng/mL; half-life [1]: 158 min
Cn1cc(-c2cc(Oc3ccc(NC(=O)N4CCC5(CCC5)C4=O)nc3)ccn2)cn1 [Compound 1]	3.5	2860		IC50 (FLT-3): > 10 µM; AUC [1]: 26.6 µg·h/mL; bioavailability [1]: 100%; Cmax [1]: 3390 ng/mL; half-life [1]: 164 min
Cn1cc(-c2cc(Oc3ccc(NC(=O)N4CCC5(CCCC5)C4=O)nc3)ccn2)cn1 [Compound 3]	2.6	1620	1.1	AUC [1]: 15.8 µg·h/mL; bioavailability [1]: 89.5%; Cmax [1]: 3200 ng/mL; half-life [1]: 198 min
Cn1cc(-c2cc(Oc3ccc(NC(=O)N4CCC5(CCC(F)(F)C5)C4=O)nc3)ccn2)cn1 (stereo not shown) [Compound 25]	5			
Cc1nc(NC(=O)N2CCC3(CCC3)C2=O)ccc1Oc1ccnc(-c2cnn(C)c2)c1 [Compound 15]	29	> 10000		IC50 (FLT-3): > 10 µM
Cn1cc(-c2cc(Oc3ccc(NC(=O)N4CCC5(CC5)C4=O)nc3)ccn2)cn1 [Compound 10]			0.55	AUC [1]: 21.3 µg·h/mL; bioavailability [1]: 64%; Cmax [1]: 2240 ng/mL; half-life [1]: 311 min; EC50 (FMS): 4 nM
Cn1cc(-c2cc(Oc3ccc(NC(=O)N4CCC5(CCCC(F)(F)C5)C4=O)nc3)ccn2)cn1 (stereo not shown) [Compound 24]	20			
CC(=O)N1CCC2(CC1)CCN(C(=O)Nc1ccc(Oc3ccnc(-c4cnn(C)c4)c3)cn1)C2=O [Compound 12]			171	
Cc1ncc(-c2cc(Oc3ccc(NC(=O)N4CCC5(CCC(F)(F)CC5)C4=O)nc3)ccn2)s1 [Compound 23]			5.3	
Cc1nc(NC(=O)N2CCC3(CCC(F)(F)CC3)C2=O)ccc1Oc1ccnc(-c2cnn(C)c2)c1 [Compound 14]	17	> 10000		IC50 (FLT-3): > 10 µM; AUC [1]: 20.3 µg·h/mL; bioavailability [1]: 67.3%; Cmax [1]: 1400 ng/mL; half-life [1]: 355 min
Cn1cc(-c2cc(Oc3ccc(NC(=O)N4CCC5(CCCC(O)C5)C4=O)nc3)ccn2)cn1 (stereo not shown) [Compound 17]			6.5	
Cn1cc(-c2cc(Oc3ccc(NC(=O)N4CCC5(CC(F)(F)C5)C4=O)nc3)ccn2)cn1 [Compound 26]	4.5	2810		IC50 (FLT-3): > 10 µM; AUC [1]: 48.3 µg·h/mL; bioavailability [1]: 79%; Cmax [1]: 4490 ng/mL; half-life [1]: 403 min
Cn1cc(-c2cc(Oc3ccc(NC(=O)N4CCC5(CCC(=O)C5)C4=O)nc3)ccn2)cn1 (stereo not shown) [Compound 19]	11	719		IC50 (FLT-3): > 10 µM
Cn1cc(-c2cc(Oc3ccc(NC(=O)N4CCC5(CCCCC5F)C4=O)nc3)ccn2)cn1 (stereo not shown) [Compound 9]			2.1	
Cn1cc(-c2cc(Oc3ccc(NC(=O)N4CCC5(CCOCC5)C4=O)nc3)ccn2)cn1 [Compound 5]			9.1	
